The source of these data is patent US11884652B2, “Tetrazole derivatives as TRPA1 inhibitors” (Boehringer Ingelheim International GmbH, priority 2020, dated 2024).

One data set concerns the target T1, human TRPA1 ion channel (Homo sapiens, UniProt O75762).
T1 construct: host or cells: HEK293
The experiment in a line: Assay A: TRPA1 assay (FLIPR, AITC-induced calcium, HEK293 cells). The class given is cell-based. The following applies: read-out: hTRPA1 IC50. As for the experimental part:
A human HEK293 cell line over-expressing the human TRPA1 ion channel (Perkin Elmer, Product No. AX-004-PCL) is used as a test system for compound efficacy and potency. Compound activity is determined by measuring the effect of compounds on intracellular calcium concentration induced by AITC (Allylisothiocyanat) agonism in a FLIPRtetra system (Molecular Devices).
The cells are obtained as frozen cells in cryo-vials and stored until use at −150° C. Cells are grown in culture medium (MEM/EBSS medium with 10% FCS and 0.4 mg/ML Geneticin). […] For sub-culturing cells are detached from flasks by Versene. At the day before the assay, cells are detached, washed twice with medium (MEM/EBSS medium with 10% FCS) and 20000 cells in 20 μl/well are seeded to Poly D-Lysin biocoated 384-well plates (black, clear bottom, Cat. 356697) from Corning. Plates are incubated for 24 hours at 37° C./5% CO2 before use in the assay.
The test compounds are dissolved in 100% DMSO at a concentration of 10 mM and in a first step diluted in DMSO to a concentration of 5 mM, followed by serial dilution steps in 100% DMSO. Dilution factor and number of dilution steps may vary according to needs. Typically 8 different concentrations by 1:5 dilutions are prepared, further intermediate dilutions (1:20) of the substances are carried out with HBSS/HEPES buffer (1×HEPES, Cat. 14065 from Gibco, 20 mM HEPES, Cat. 83264 from SIGMA, 0.1% BSA Cat. 11926 from Invitrogen, pH 7.4
At the assay day cells are washed 3× with assay puffer, 20 μL buffer remaining in the wells after washing. 10 μL Ca6 kit (Cat. R8191 MolecularDevices) loading buffer in HBSS/HEPES is added to the cells and the plates are incubated with lid for 120 minutes at 37°/5% CO2. 10 μL of compound or controls in HBSS/HEPES buffer/5% DMSO from the intermediate dilution plate are carefully added to the wells. […] Finally 10 μL of the agonist AITC 50 μM dissolved in HBSS/HEPES buffer/0.05% DMSO (final concentration 10 μM) is added to the wells followed by an additional read on the FLIPRtetra device for 10 minutes. The area under the signal curve (AUC) after AITC addition is used for IC50/% inhibition calculations
Data Evaluation and Calculation:
Each assay microtiter plate contains wells with vehicle (1% DMSO) controls instead of compound as controls for AITC induced luminescence (100% CTL; high controls) and wells with vehicle controls without AITC as controls for non-specific changes in luminescence (0% CTL; low controls).
The analysis of the data is performed by the calculation of the area under signal curve of the individual wells. Based on this values the % value for the measurement of each substance concentration is calculated (AUC(sample)−AUC(low))*100/(AUC(high)−AUC(low)) using MegaLab software (in house development). The IC50 values are calculated from the % control values using MegaLab software. Calculation: [y=(ad)/(1+(x/c)^b)+d], a=low value, d=high value; x=conc M; c=IC50 M; b=hill; y=% ctrl

Data set [1] in a line: Assay B: Microsomal clearance. The class given is in vitro ADME, human. Conditions: pooled liver microsomes 1 mg/ml, 1 μM compound, NADPH, 37° C.; clearance as % of hepatic blood flow. As for the experimental part:
Assay B: Microsomal Clearance:
The metabolic degradation of the test compound is assayed at 37° C. with pooled liver microsomes. The final incubation volume of 100 μl per time point contains TRIS buffer pH 7.6 at RT (0.1 M), magnesium chloride (5 mM), microsomal protein (1 mg/ml) and the test compound at a final concentration of 1 μM.
Following a short preincubation period at 37° C., the reactions are initiated by addition of beta-nicotinamide adenine dinucleotide phosphate, reduced form (NADPH, 1 mM) and terminated by transferring an aliquot into solvent after different time points (0, 5, 15, 30, 60 min). Additionally, the NADPH-independent degradation is monitored in incubations without NADPH, terminated at the last time point. The [%] remaining test compound after NADPH independent incubation is reflected by the parameter c(control) (metabolic stability). The quenched incubations are pelleted by centrifugation (10000 g, 5 min).
An aliquot of the supernatant is assayed by LC-MS/MS for the amount of parent compound. The half-life (t½ INVITRO) is determined by the slope of the semilogarithmic plot of the concentration-time profile.
The intrinsic clearance (CL_[…]) is calculated by considering the amount of protein in the incubation: CL_[…] [μl/min/mg protein]=(Ln 2/(half-life [min]*protein content [mg/ml]))*1000 CL_[…]_INVIVO [ml/min/kg]=(CL_[…] [μL/min/mg protein]×MPPGL [mg protein/g liver]×liver factor [g/kg bodyweight])/1000 Qh[%]=CL[ml/min/kg]/hepatic blood flow [ml/min/kg])
(§1) Hepatocellularity, human: 120×10e6 cells/g liver
(§2) Liver factor, human: 25.7 g/kg bodyweight
(§3) Blood flow, human: 21 ml/(min×kg)
A general note: Liver microsomes are a subcellular fraction often used to study metabolism.

The nature of data set [2]: Assay C: Hepatocyte clearance. The data set is classed as in vitro ADME, human. Conditions: hepatocyte suspension, 1 μM compound, 6 h; predicted clearance as % of hepatic blood flow. As for the experimental part:
Assay C: Hepatocyte Clearance
The metabolic degradation of the test compound is assayed in a hepatocyte suspension. Hepatocytes (cryopreserved) are incubated in Dulbecco's modified eagle medium (supplemented with 3.5 μg glucagon/500 mL, 2.5 mg insulin/500 mL and 3.75 mg/500 mL hydrocortison) containing 5% or 50% species serum.
The cells are incubated for six hours (incubator, orbital shaker) and samples ([…]) are taken at 0, 0.5, 1, 2, 4 and 6 hours. Samples are transferred into acetonitrile and pelleted by centrifugation (5 min). The supernatant is transferred to a new 96-deepwell plate, evaporated under nitrogen and resuspended.
Decline of Parent Compound is Analyzed by HPLC-MS/MS
CLint is calculated as follows CL_[…]=Dose/AUC=(C0/CD)/(AUD+clast/k)×1000/60. C0: initial concentration in the incubation [μM], CD: cell density of vital cells [10e6 cells/mL], AUD: area under the data [μM×h], clast: concentration of last data point [μM], k: slope of the regression line for parent decline [h−1].
The calculated in vitro hepatic intrinsic clearance can be scaled up to the intrinsic in vivo hepatic Clearance and used to predict hepatic in vivo blood clearance (CL) by the use of a liver model (well stirred model). CL_[…]_INVIVO [ml/min/kg]=(CL_[…] [μL/min/10e6 cells]×hepatocellularity [10e6 cells/g liver]×liver factor [g/kg bodyweight])/1000 CL[ml/min/kg]=CL_[…]_INVIVO [ml/min/kg]×hepatic blood flow [ml/min/kg]/(CL_[…]_INVIVO [ml/min/kg]+hepatic blood flow [ml/min/kg]) Qh[%]=CL[ml/min/kg]/hepatic blood flow [ml/min/kg])
as §1, §2, §3

T1 sequence (O75762 whole entry): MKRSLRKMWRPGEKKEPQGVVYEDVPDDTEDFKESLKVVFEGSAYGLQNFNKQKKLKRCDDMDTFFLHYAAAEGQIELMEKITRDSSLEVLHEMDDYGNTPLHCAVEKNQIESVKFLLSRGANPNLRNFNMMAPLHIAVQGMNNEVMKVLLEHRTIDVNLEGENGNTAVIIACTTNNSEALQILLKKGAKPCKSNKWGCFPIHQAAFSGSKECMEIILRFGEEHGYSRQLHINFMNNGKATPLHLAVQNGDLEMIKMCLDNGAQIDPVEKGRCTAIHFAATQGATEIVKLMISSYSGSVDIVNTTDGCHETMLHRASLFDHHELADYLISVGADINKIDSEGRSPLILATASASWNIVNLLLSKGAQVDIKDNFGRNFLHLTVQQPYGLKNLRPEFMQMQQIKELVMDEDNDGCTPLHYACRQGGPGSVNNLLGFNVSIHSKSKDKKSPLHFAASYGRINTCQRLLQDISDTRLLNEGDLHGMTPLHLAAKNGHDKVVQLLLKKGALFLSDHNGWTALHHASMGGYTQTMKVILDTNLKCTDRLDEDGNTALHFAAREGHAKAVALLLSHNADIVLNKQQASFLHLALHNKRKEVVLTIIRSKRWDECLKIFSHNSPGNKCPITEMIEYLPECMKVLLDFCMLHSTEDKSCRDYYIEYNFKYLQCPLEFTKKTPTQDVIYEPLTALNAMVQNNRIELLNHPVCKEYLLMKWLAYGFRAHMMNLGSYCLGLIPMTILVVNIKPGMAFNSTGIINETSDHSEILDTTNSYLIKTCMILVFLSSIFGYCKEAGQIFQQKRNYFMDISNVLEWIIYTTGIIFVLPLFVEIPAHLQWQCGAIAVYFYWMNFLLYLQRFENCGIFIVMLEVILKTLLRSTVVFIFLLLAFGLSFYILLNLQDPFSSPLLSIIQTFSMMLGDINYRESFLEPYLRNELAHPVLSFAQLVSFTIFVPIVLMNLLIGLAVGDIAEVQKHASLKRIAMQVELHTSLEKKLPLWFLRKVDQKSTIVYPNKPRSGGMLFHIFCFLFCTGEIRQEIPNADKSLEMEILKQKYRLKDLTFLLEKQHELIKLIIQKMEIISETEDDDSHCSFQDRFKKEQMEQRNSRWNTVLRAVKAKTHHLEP

The term IC50 denotes the point on the concentration scale where inhibition reaches its midpoint. For `Cn1c(=O)c(C(N)=O)cn(Cc2nnn(C[C@H](O)c3cc4ccc(F)cc4s3)n2)c1=O` [Example 3], the IC50 at human TRPA1 ion channel was 0.018 µM. Further, in data set [1], the “human LM [% Qh]” value came to 26 % Qh. Also, the “human Hepatocytes [% Qh]” value in data set [2] is 27 % Qh.

`Cn1c(=O)c(C(N)=O)cn(Cc2nnn(C[C@H](O)c3cc4cc(Cl)ccc4o3)n2)c1=O` [Example 6]: the IC50 on human TRPA1 ion channel stood at 0.042 µM. In data set [1], the “human LM [% Qh]” value is on record as less than 23 % Qh. Moreover, the “human Hepatocytes [% Qh]” value in data set [2] is recorded as 15 % Qh.

In the case of `Cn1c(=O)c(C(=O)NCC(F)F)cn(Cc2nnn(C[C@H](O)c3ccc(Cl)cc3)n2)c1=O` [Example 23], the IC50 at human TRPA1 ion channel was determined as 0.039 µM. In addition, the “human LM [% Qh]” value in data set [1] is listed as less than 23 % Qh. The “human Hepatocytes [% Qh]” value in data set [2] was 15 % Qh.

As to `NC(=O)c1cn(Cc2nnn(C[C@H](O)c3ccc(Cl)cc3)n2)c(=O)n(C2CCC2)c1=O` [Example 18], on human TRPA1 ion channel, the IC50 came to 0.033 µM. In data set [1], the “human LM [% Qh]” value was 38 % Qh. Further, in data set [2], the “human Hepatocytes [% Qh]” value was 39 % Qh.

`COCCNC(=O)c1cn(Cc2nnn(C[C@H](O)c3ccc(Cl)cc3)n2)c(=O)n(C)c1=O` [Example 22, 1-({2-[(2R)-2-(4-chlorophenyl)-2-hydroxyethyl]-2H-1,2,3,4-tetrazol-5-yl}methyl)-N-(2-methoxyethyl)-3-methyl-2,4-dioxo-1,2,3,4-tetrahydropyrimidine-5-carboxamide]: the IC50 on human TRPA1 ion channel is 0.023 µM. Further, the “human LM [% Qh]” value in data set [1] was less than 23 % Qh. Further, the “human Hepatocytes [% Qh]” value in data set [2] is reported as 25 % Qh.

`Cn1c(=O)c(C(=O)NCCn2cccn2)cn(Cc2nnn(C[C@H](O)c3ccc(Cl)cc3)n2)c1=O` [Example 35]: at human TRPA1 ion channel, the IC50 came out at 0.033 µM. In data set [1], the “human LM [% Qh]” value is recorded as less than 23 % Qh. For the same molecule, the “human Hepatocytes [% Qh]” value in data set [2] was 19 % Qh.

In the case of `Cn1c(=O)c(C(N)=O)cn(Cc2nnn(C[C@H](O)c3cc4cc(F)ccc4o3)n2)c1=O` [Example 8], at human TRPA1 ion channel, the IC50 was determined as 0.059 µM. The “human LM [% Qh]” value in data set [1] is listed as less than 23 % Qh. For the same molecule, the “human Hepatocytes [% Qh]” value in data set [2] is on record as 6 % Qh.

Take `COc1ccc([C@@H](O)Cn2nnc(Cn3cc(C(N)=O)c(=O)n(C)c3=O)n2)cc1` [Example 16]: the IC50 on human TRPA1 ion channel turned out to be 0.16 µM. Besides, the “human LM [% Qh]” value in data set [1] is recorded as less than 23 % Qh. Moreover, the “human Hepatocytes [% Qh]” value in data set [2] was less than 4 % Qh.

For the molecule `CCn1c(=O)c(C(N)=O)cn(Cc2nnn(C[C@H](O)c3ccc(Cl)cc3)n2)c1=O` [Example 19], on human TRPA1 ion channel, the IC50 was 0.062 µM. For the same molecule, the “human LM [% Qh]” value in data set [1] is given as less than 23 % Qh. Moreover, the “human Hepatocytes [% Qh]” value in data set [2] was 5 % Qh.

For the molecule `Cn1c(=O)c(C(N)=O)cn(Cc2nnn(C[C@H](O)c3cc4cccc(F)c4o3)n2)c1=O` [Example 15], the IC50 on human TRPA1 ion channel is 0.198 µM. For the same molecule, the “human LM [% Qh]” value in data set [1] was less than 23 % Qh. In data set [2], the “human Hepatocytes [% Qh]” value is recorded as 14 % Qh.

As for `Cn1c(=O)c(C(=O)NCC2CC2)cn(Cc2nnn(C[C@H](O)c3ccc(Cl)cc3)n2)c1=O` [Example 32], the IC50 at human TRPA1 ion channel stood at 0.092 µM. Also, the “human LM [% Qh]” value in data set [1] stood at 52 % Qh. For the same molecule, the “human Hepatocytes [% Qh]” value in data set [2] is 45 % Qh.

`COCCn1c(=O)c(C(N)=O)cn(Cc2nnn(C[C@H](O)c3ccc(Cl)cc3)n2)c1=O` [Example 21]: the IC50 on human TRPA1 ion channel is 0.258 µM. The “human LM [% Qh]” value in data set [1] was less than 23 % Qh. For the same molecule, the “human Hepatocytes [% Qh]” value in data set [2] was 15 % Qh.

Regarding `Cn1c(=O)c(C(N)=O)cn(Cc2nnn(C[C@H](O)c3ccc4oc(F)cc4c3)n2)c1=O` [Example 4], the IC50 on human TRPA1 ion channel came out at 0.034 µM. In addition, in data set [1], the “human LM [% Qh]” value is on record as less than 23 % Qh. Besides, in data set [2], the “human Hepatocytes [% Qh]” value is listed as 8 % Qh.

With `Cn1c(=O)c(C(N)=O)cn(Cc2nnn(C[C@H](O)c3ccc4c(c3)OCO4)n2)c1=O` [Example 11], the 50% inhibitory concentration (IC50) on human TRPA1 ion channel amounted to 0.105 µM. Moreover, in data set [1], the “human LM [% Qh]” value is given as less than 23 % Qh. For the same molecule, the “human Hepatocytes [% Qh]” value in data set [2] was less than 4 % Qh.
